Source: ChEMBL document CHEMBL3044535, “Pharmacological profile of green tea and its polyphenols: a review” (Med Chem Res, 2012)
Converted amounts (≈) assume the structure as drawn.

Legend:
[1] = molecular target: Urease subunit alpha/Urease subunit beta (Helicobacter pylori (strain ATCC 700392 / 26695) (Campylobacterpylori), UniProt P69996); assay: Inhibition of Helicobacter pylori urease; format: protein-complex assay
[2] = tested on: PC-12; assay: Neuroprotective activity in rat PC12 cells assessed as increase in non amyloidogenic soluble form of amyloid precursor protein secretion at 0.1 to 10 uM after 2 hr by immunoblot analysis relative to control; format: functional
[3] = tested on: SH-SY5Y; assay: Neuroprotective activity in Homo sapiens (human) SH-SY5Y cells assessed as increase in non amyloidogenic soluble form of amyloid precursor protein secretion at 0.1 to 10 uM after 2 hr by immunoblot analysis relative to control; format: functional
[4] = tested on: Stenotrophomonas maltophilia; assay: Bactericidal activity against Stenotrophomonas maltophilia clinical isolate; format: functional
[5] = tested on: Stenotrophomonas maltophilia; assay: Antibacterial activity against Stenotrophomonas maltophilia clinical isolate by broth macrodilution method; format: functional
[6] = tested on: Stenotrophomonas maltophilia; assay: Antibacterial activity against Stenotrophomonas maltophilia clinical isolate by agar dilution method; format: functional
[7] = tested on: MDA-MB-468; assay: Cytotoxicity against ER-negative Homo sapiens (human) MDA-MB-468 cells assessed as growth inhibition at 5 to 80 ug/ml after 24 to 72 hr by MTT assay; format: functional
[8] = tested on: MDA-MB-468; assay: Cytotoxicity against ER-negative Homo sapiens (human) MDA-MB-468 cells assessed as inhibition of cell viability at 5 to 80 ug/ml after 24 to 72 hr by MTT assay; format: functional
[9] = tested on: SK-OV-3; assay: Downregulation of Bcl-XL expression in Homo sapiens (human) SKOV3 cells at 25 uM after 48 hr by Western blot analysis relative to control; format: functional
[10] = tested on: SK-OV-3; assay: Downregulation of CDK4 expression in Homo sapiens (human) SKOV3 cells at 25 uM after 48 hr by Western blot analysis relative to control; format: functional
[11] = tested on: SK-OV-3; assay: Downregulation of cyclin D1 expression in Homo sapiens (human) SKOV3 cells at 25 uM after 48 hr by Western blot analysis relative to control; format: functional
[12] = tested on: SK-OV-3; assay: Downregulation of retinoblastoma expression in Homo sapiens (human) SKOV3 cells at 25 uM after 48 hr by Western blot analysis relative to control; format: functional
[13] = tested on: SK-OV-3; assay: Downregulation of p21 expression in Homo sapiens (human) SKOV3 cells at 25 uM after 48 hr by Western blot analysis relative to control; format: functional
[14] = tested on: SK-OV-3; assay: Downregulation of bax expression in Homo sapiens (human) SKOV3 cells at 25 uM after 48 hr by Western blot analysis relative to control; format: functional
[15] = tested on: Epidermal microsome; assay: Antioxidant activity in Homo sapiens (human) epidermal microsomal fractions assessed as inhibition of UV-induced lipid peroxidation measured at 6 to 48 hr; format: functional; details: Skin epidermis, dose or concentration not given here
[16] = tested on: Dermis; assay: Antioxidant activity in Homo sapiens (human) dermis cytosolic form assessed as inhibition of UV-induced nitric oxide production administered before UV induction at 48 hr by Griess assay; format: functional
[17] = tested on: Skin epidermis; assay: Antioxidant activity in Homo sapiens (human) epidermis cytosolic form assessed as inhibition of UV-induced nitric oxide production administered before UV induction at 48 hr by Griess assay; format: functional
[18] = tested on: Dermis; assay: Antioxidant activity in Homo sapiens (human) dermis assessed as inhibition of UV-induced hydrogen peroxide production administered before UV induction at 48 hr by DHR assay; format: functional
[19] = tested on: Skin epidermis; assay: Antioxidant activity in Homo sapiens (human) epidermis assessed as inhibition of UV-induced hydrogen peroxide production administered before UV induction at 48 hr by DHR assay; format: functional

Urease subunit alpha/Urease subunit beta, sequence (P69996 whole entry): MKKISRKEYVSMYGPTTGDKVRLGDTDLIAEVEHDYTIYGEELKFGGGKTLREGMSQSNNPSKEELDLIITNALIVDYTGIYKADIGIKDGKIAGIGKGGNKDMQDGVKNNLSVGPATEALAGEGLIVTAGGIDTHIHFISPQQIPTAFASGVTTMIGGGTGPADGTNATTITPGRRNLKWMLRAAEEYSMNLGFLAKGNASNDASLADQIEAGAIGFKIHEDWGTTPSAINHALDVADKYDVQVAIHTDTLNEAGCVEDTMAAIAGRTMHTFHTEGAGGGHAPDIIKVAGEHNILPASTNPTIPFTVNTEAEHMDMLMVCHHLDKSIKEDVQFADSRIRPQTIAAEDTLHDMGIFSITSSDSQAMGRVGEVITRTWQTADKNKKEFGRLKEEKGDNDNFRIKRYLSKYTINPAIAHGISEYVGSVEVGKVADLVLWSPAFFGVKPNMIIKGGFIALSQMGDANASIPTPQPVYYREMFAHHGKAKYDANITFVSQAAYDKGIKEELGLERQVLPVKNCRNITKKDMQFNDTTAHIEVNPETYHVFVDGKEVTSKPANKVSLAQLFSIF
Urease subunit alpha/Urease subunit beta, sequence (P14916 whole entry, further chain): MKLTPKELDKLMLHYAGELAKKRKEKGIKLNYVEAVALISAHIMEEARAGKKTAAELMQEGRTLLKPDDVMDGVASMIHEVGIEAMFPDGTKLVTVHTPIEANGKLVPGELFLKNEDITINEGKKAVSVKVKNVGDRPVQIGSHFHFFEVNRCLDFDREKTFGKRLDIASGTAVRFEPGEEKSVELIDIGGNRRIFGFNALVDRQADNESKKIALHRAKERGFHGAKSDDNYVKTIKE

Structure (SMILES): Oc1cc(O)c2c(c1)O[C@H](c1ccc(O)c(O)c1)[C@@H](O)C2 [CATECHIN]
- IC50 [1]: 44.8 µM

Structure (SMILES): O=C(O[C@@H]1Cc2c(O)cc(O)cc2O[C@@H]1c1cc(O)c(O)c(O)c1)c1cc(O)c(O)c(O)c1 [EPIGALOCATECHIN GALLATE]
- fold change (FC) [2]: 6
- fold change (FC) [3]: 6
- MIC50 [4]: 512 µg/mL (≈ 1120 µM)
- MIC90 [4]: 512 µg/mL (≈ 1120 µM)
- MIC50 [5]: 512 µg/mL (≈ 1120 µM)
- MIC90 [5]: 512 µg/mL (≈ 1120 µM)
- MIC50 [6]: 256 µg/mL (≈ 558 µM)
- MIC90 [6]: 256 µg/mL (≈ 558 µM)
- growth inhibition (GI) [7]: 15%
- inhibition (INH) [8]: 3%
- fold change (FC) [9]: >2
- fold change (FC) [10]: >2
- fold change (FC) [11]: >2
- fold change (FC) [12]: >2
- fold change (FC) [13]: >2
- fold change (FC) [14]: >2
- inhibition [15]: 41%
- inhibition (INH) [16]: 30%
- inhibition (INH) [17]: 30%
- inhibition (INH) [18]: 30%
- inhibition (INH) [19]: 30%
